Measurements taken from USRE39682E1, “Farnesyl derivatives and pharmaceutical compositions containing them” (Ramot at Tel Aviv University Ltd., priority 1993, dated 2007).

Columns and labels:
[1] = tested on: Ha-ras-transformed rat1 cells; assay: Transformed phenotype (multi-layered clumps) of ras-transformed rat1 cells; assay type: cell-based, rat; conditions: 5 days
Source text: The two compounds had no effect on the morphology of the non-transformed cells. (FIG. 9B and 9C).

[2] = tested on: Erb-B2 transformed 3T3 cells (RB-22); assay: Growth of Erb-B2 transformed cells; assay type: cell-based; conditions: 25 μM
Source text: (§1) The cell lines employed were rat1, -EJ, which are rat1 cells stably expressing Val- 12 activated human Ha-ras gene (Land H. et al., Nature, 304, 596-602, (1983)); V-raf-3T3, which are 3T3 cells stably expressing the V-raf gene (Xu, N., et al., Proc. Natl. Acad. Sci., 90, 6741-6745); RB-22, which are 3T3 cells stably expressing the rat Erb-B2 gene (Peles, et al., EMBO J., 10, 2077-2086 (1991)) CO6O cells (SV40-CHO), which are CHE cells stably expressing the SV-40 T-antigen gene (Lavi, Proc. Natl. Acad. Sci., 78, 6144-6148 (1981)); human endometrial carcinoma cell line HEC1A, which are cells that express activated K-ras (Enomoto T., Cancer Res., 50, 6139-6145; mouse B16F10 melanoma cells, rat pheochromocytoma PC12 cells, […] cells CHE and COS cells.
(§2) HEC1A, V-raf-3T3 and SV40-CHE cells were grown in Dulbecco's modified Eagle medium (DMEM) containing 10% fetal calf serum (FCS), 4 mM L-glutamine, 10 μg/ml streptomycin and 10 U/ml penicillin. Rat1 and -EJ cells were grown in the same medium except that it was supplemented with 12.5 U/ml nyostatin. RB-22 cells were grown in modified DMEM (1 mM sodium pyruvate, 20 mM sodium bicarbonate)/10% FCS containing 4 mM L-glutamine, […] streptomycin, 10 U/ml penicillin. […]
(§3) The potent PPMTase inhibitor FTS was used to examine selectivity of the drugs towards ras-dependent growth-signaling pathways. […] Cells were counted on day 5 of the experiment.

[3] = tested on: C57 black mice; assay: In vivo toxicity, repeated s.c. or i.p. injection; conditions: 0.21 mg/kg s.c. or i.p. every 3 days for 2 weeks
Procedure: Toxicity tests in intact animals were performed with C57 black and with bulb-C mice.
Four groups, each comprising 9 mice, were used. Animals of group one received 100 μl s.c. injections of 150 μM FTS in salient solution containing 1% DMSO (0.21 mg drug/kg body weight). The drug was injected every 3 days for 2 weeks. Group two, which served as controls, received the solvent/saline solution for the same period of time.

[4] = tested on: ras proteins; assay: Methylation of immunoprecipitated ras proteins in intact ras-transformed rat1 cells; assay type: cell-based, rat; conditions: 100 μM, FIG. 4
Source text: HEC1A, rail, ras-transformed rail and B16F10 melanoma cells were also used for metabolic labelling of endogenous proteins with 100-300 μCi/ml [methyl-^3H]methionine which was also indicative of PPMTase activity. Metabolic labelling procedures were as detailed elsewhere (Hakiai et al., supra. (1991); Lenner et al., supra. (1992)), and immunoprecipitation of ras with Y13-159 Ab were as detailed by Clarke et al. (Proc. Natl. Acad. Sci. USA, 85, 4643-4647 (1988)).
While the above Table II determines the PPMTase activity by assaying the methylation of a synthetic substrate, FIG. 3 determines this activity by methylation of various endogenous ras-like prenylated GTP-binding proteins present in intact HEC1A, ras-transformed rat1 and melanoma cells, with and without 100 μM of FTA or FTS. […] Use of [α-P^32]

[5] = tested on: Ha-ras transformed rat1 (EJ) cells; assay: Tumor growth in nude mice implanted with Ha-ras-transformed rat1 cells; assay type: in vivo, nude mice (CD1-Nu)
Procedure: Male nude mice (CD1—Nu) were obtained from the Weizmann Institute of Science, Rehovot, Israel. Groups of 5 to 8 mice (3-4 weeks old, 25±2 gr body weight) were used in each experiment for both; controls and FTS treatment. Cells (Ha-ras transformed rat1 (EJ) cells, 2×10^6 cells in 100 μl PBS) were injected systematically (s.c.). Cell implantation and drug administration began on the same day. The EJ cells were prepared from confluent cultures. Cells were detached with trypsin/EDTA, washed with DMEM/10% FCS followed by 3 times PBS washes. A suspension of 2×10^7 cells/ml was prepared and used for experiment within 15-30 min. of preparation.
FTS was prepared as a stock solution (0.225M) in ethanol. It was diluted just prior to the drug administration with PBS to yield a solution of 1.35 mM FTS, 0.6% ethanol. Under these conditions FTS remained in solution for the period of time required for administration.
Experimental mice received 100 μl of the FTS solution, respectively, daily or every other day. Controls received the appropriate administration of 0.6% ethanol in PBS. Tumor growth was monitored by daily observations and by size measurement using a millimetric caliper (two dimensions of the tumor size were taken usually twice a week).
Data were expressed in terms of tumor size (cm^2) in each mouse as a function of time.
Ha-ras transformed rat1 cells (2×10^6) were implanted beneath the skin of the right hind leg of nude mice. The mice received a systemic s.c. injection of either the solvent (0.6% ethanol in PBS) or FTS, starting on the day of cell implantations. Two sets of experiments were performed. In the one set the mice received 3.6 mg/kg FTS daily. Tumors sizes measured every 3-4 days beginning on day 10 of the experiment. […] Out of the 8 control mice, 6 developed tumors having a size of 4 cm^2 or greater and 2 developed tumors of 2 cm^2 or less. In another set of experiments mice received 1.6 mg/kg FTS every other day.

[6] = tested on: Rat1 cells stimulated with EGF or bFGF; assay: Mitogenic effect of EGF and bFGF in Rat1 cells; assay type: cell-based, rat; conditions: 25 μM; for Number of cells (% of control): day 5
Procedure: The potent […] inhibitor FTS was used to examine selectivity of the drugs towards ras-dependent growth-signaling pathways. In these experiments cells transformed by Erb-B2, that acts upstream of ras in the ras pathway, and cells transformed by V-raf or by T-antigen, that act independently of ras, were studied. The cells were placed at a density of 2×10^3 cells/well and received on the day of plating either solvent (controls) or 25 μM FTS. Cells were counted on day 5 of the experiment. […] At this concentration, however, no effects of FTS on the growth of V-tar transformed or of T-antigen-transformed cells were observed. The results in Table VI also indicate that the mitogenic effect of bFGF and EGF in Rat1 cells is inhibited by FTS.

[7] = tested on: V-raf transformed 3T3 cells; assay: Growth of V-raf transformed cells; assay type: cell-based; conditions: 25 μM
Source text: as §1, §2, §3

With `CC(C)=CCC/C(C)=C/CC/C(C)=C/CSc1ccccc1C(=O)O` [FTS, (3,7,11-trimethyl-dodeca-2,6,10-trienyl)-2-thiobenzoic acid] the “effect on transformed phenotype” value ([1]; 5 μM, FIG. 9E) was “reversed the transformed phenotype”, the “effect on transformed phenotype” value ([1]; 10 μM, FIG. 9F) was “reversed the transformed phenotype” and the “effect on growth of Erb-B2-transformed cells” value [2] was “sufficient to inhibit growth”. The “Number of cells (% of control)” value ([2]; Brb-B2 transformed 3T3, day 5) was 36 % of control, the “deaths out of the 18 drug treated animals” value [3] was “one” and the “inhibition of methylation of ras proteins” value [4] was “inhibits”. For the same molecule, the “effect on tumor growth” value ([5]; 1.6 mg/kg every other day, FIG. 13) was “inhibitory effects”, the “mice out of 8 that developed tumors of 2 cm2 or less” value ([5]; 3.6 mg/kg daily, systemic s.c.) was 6 and the “mice out of 8 that developed tumors of greater than 4 cm2” value ([5]; 3.6 mg/kg daily, systemic s.c.) was 2. For the same molecule, the “effect on tumor growth” value ([5]; 3.6 mg/kg daily, systemic s.c., FIG. 12) was “profound inhibition of tumor growth”, the “effect on the mitogenic effect of bFGF and EGF in Rat1 cells” value [6] was “inhibited” and the “Number of cells (% of control)” value ([6]; Ras1 + 10 mg/ml ECP) was 40 ± 5 % of control. The “Number of cells (% of control)” value ([6]; Ras1 + 50 mg/ml bPCP) was 42 ± 3 % of control, the “effect on growth of V-raf transformed cells” value [7] was “no effects” and the “Number of cells (% of control)” value ([7]; Y-ref transformed 3T2, day 5) was 93 ± 8 % of control.
